Usually CLint scaled stands for the capacity of the preparation to metabolise the compound, expressed as a volume cleared per time. Higher therefore signals faster metabolism.

Consider 3 compounds from patent publication US20090012125A1, “Piperidine Derivatives, Their Process for Preparation, Their Use as Therapeutic Agents and Pharmaceutical Compositions Containing Them” (priority 2006, published 2009).

Bounds are passed on as bounds.

Data set [1] is described as follows: Intrinsic clearance with human liver microsomes. The note with it: human liver microsomes 1 mg protein/ml, NADPH, pH 7.4. It is filed as in vitro ADME. As to the method:
Determination of Intrinsic Clearance with Human Liver Microsomes
Frozen human liver microsomes (BD Gentest, Oxford) were defrosted and were then diluted with 0.1 M pH 7.4 phosphate buffer at 4° C. to 1 mg protein/ml. 0.45 mL aliquots of the microsome suspension were dispensed into flat-bottomed vials (1 per compound) and were allowed to come to room temperature (5 min). During the warming time, 5 μL of solution of each test compound (typically 100 μM in DMSO) was dispensed into separate vials resulting in a final DMSO concentration of 1%. 50 μL of a 10 mM solution of NADPH in phosphate buffer (0.1 M pH 7.4, 37° C.) was added to each vial to initiate metabolism.
50 μL Aliquots of the mixtures were removed at measured intervals and were immediately quenched by addition to 100 μL of methanol cooled in ice. The quenched samples were kept cold (at −20° C. or less) for at least 1 h and were then centrifuged to remove protein
The supernatant solution was analysed using quantitative LCMS for the presence of test compound. From the concentrations of test compound at different time points a T1/2 may be calculated which may be converted to an intrinsic clearance using the equation: CLint=ln 2/T1/2.
(In general: Microsomes from liver hold many membrane-bound enzymes, among them those of drug oxidation.)

The target of data set [2] is T1, human recombinant CCR3 receptors (Homo sapiens, UniProt P51677).
T1 construct: expressed in transfected cells
T1 sequence (P51677 1-355): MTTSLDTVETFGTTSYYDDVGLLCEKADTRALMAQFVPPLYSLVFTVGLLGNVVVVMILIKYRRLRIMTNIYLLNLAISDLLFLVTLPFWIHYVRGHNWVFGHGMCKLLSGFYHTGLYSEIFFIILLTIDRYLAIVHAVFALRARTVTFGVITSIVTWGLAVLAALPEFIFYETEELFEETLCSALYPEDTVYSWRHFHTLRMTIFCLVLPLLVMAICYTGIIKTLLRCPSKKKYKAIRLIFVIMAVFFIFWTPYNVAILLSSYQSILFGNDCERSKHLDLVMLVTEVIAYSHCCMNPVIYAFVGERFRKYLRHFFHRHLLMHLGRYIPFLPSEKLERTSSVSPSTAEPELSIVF
Put plainly: Compound affinity at human recombinant CCR3 receptors by radioligand competition, CHO-K1 cell membranes. It is filed as binding. The note with it: mean of minimum 2 experiments; Cheng-Prussof correction of pIC50; 2 nM [3H] radioligand, 2 h at 37° C.; read-out: CCR3 pKi (converted). The protocol: Determination of Compound Affinity at Human Recombinant CCR3 Receptors Assessed by Competition Of [^3H]-4-(2,4-dichloro-3-methylphenoxy)-1′-[4-(methylsulfonyl)benzoyl]-1,4′-bipiperidine for CHO-K1 Cell Membranes In Vitro
Membranes, prepared from CHO-K1 cells stably expressing recombinant human CCR3, suspended in assay buffer (50 mM Tris-Base, pH 7.4; containing sodium chloride (100 mM) and magnesium chloride (2 mM)) were incubated in the presence of 2 nM [^3H]-4-(2,4-dichloro-3-methylphenoxy)-1′-[4-(methylsulfonyl)benzoyl]-1,4′-bipiperidine, along with vehicle (1% (v/v) DMSO), 4-(4-chloro-3-methylphenoxy)-1′-[2-(methylsulfonyl)benzoyl]-1,4′-bipiperidine (to define non-specific binding) or test compound for 2 h at 37° C. in round bottomed 96-well plates. The plates were then filtered onto GF/B filter plates, pre-soaked for 1 hour in plate-coating solution (0.3% (w/v) polyethylenimine, 0.2% (w/v) BSA in de-ionised water), using a 96-well plate Tomtec cell harvester. Four washes (250 μL) with wash buffer (50 mM Tris-Base, pH 7.4 containing sodium chloride (500 mM) and magnesium chloride (2 mM)) were performed at 4° C. to remove unbound radioactivity. Plates were dried and MicroScint-O (50 μL) was added to each well. The plates were sealed (TopSeal A) and filter-bound radioactivity was measured with a scintillation counter (TopCount, Packard BioScience) using a 1 minute counting protocol.
Specific binding was determined from values of the control wells minus the values for the NSB wells for each assay plate. pIC50 values were calculated using a four parameter logistic fit (where pIC50 is defined as the negative logarithm of the concentration of compound required for 50% reduction in specific [^3H]-4-(2,4-dichloro-3-methylphenoxy)-1′-[4-(methylsulfonyl)benzoyl]-1,4′-bipiperidine binding). Data were presented as mean pKi values (calculated by applying a Cheng-Prussof correction to pIC50 values) from a minimum of 2 separate experiments.

Regarding `O=C(CCc1ccc(C(=O)O)cc1)NC1CCN(Cc2ccc(Cl)c(Cl)c2)CC1` [Example 2, 4-{2-[1-(3,4-Dichloro-benzyl)-piperidin-4-ylcarbamoyl]-ethyl}-benzoic acid], the CLint scaled at 1 µM in data set [1] was less than 3 mL/min/kg. Besides, in data set [2], the Ki is 63.1 nM.
In turn, `O=C(CCc1cccc(C(=O)O)c1)NC1CCN(Cc2ccc(Cl)c(Cl)c2)CC1` [Example 4, 3-{2-[1-(3,4-Dichloro-benzyl)-piperidin-4-ylcarbamoyl]-ethyl}-benzoic acid] yielded a CLint scaled at 1 µM in data set [1] of less than 3 mL/min/kg. The Ki in data set [2] was 79.4 nM.
Turning to `O=C(CCc1ccc2cc(C(=O)O)ccc2c1)NC1CCN(Cc2ccc(Cl)c(Cl)c2)CC1` [Example 6, 6-{2-[1-(3,4-Dichloro-benzyl)-piperidin-4-ylcarbamoyl]-ethyl}-naphthalene-2-carboxylic acid], the CLint scaled at 1 µM in data set [1] was less than 3 mL/min/kg. The Ki in data set [2] was 15.8 nM.
